From the supplement of paper PMC10307832

Experiments:
Assay in all cases: relative viability (nuclei count vs DMSO), 5 days (fraction); higher = more cells survive
[1] = compound: C[As](C)SC[C@H](NC(=O)CC[C@H](N)C(=O)O)C(=O)NCC(=O)O [Darinaparsin] + N=C(N)NC(=N)NCCc1ccccc1 [Phenformin] (partner 250 µM)
Procedure, shortened: (§1)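 Lung cancer cell lines were pin-tool dosed in 1536-well plates on the day after seeding, with either a lone drug or a fixed anchor-drug dose plus five library-drug doses (not always all listed) in √10 steps. Nuclei were counted on 4× images after 5 days. Relative viability is the ratio of treated-well to vehicle-well nuclei counts, with each value a median of duplicate plates.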

QS11 + Vorinostat = compound: C1CC2=C(C1)C=C(C=C2)OC3=NC(=C4C(=N3)N(C=N4)CC5=CC=C(C=C5)C6=CC=CC=C6)N[C@@H](CC7=CC=CC=C7)CO [QS11] + O=C(CCCCCCC(=O)Nc1ccccc1)NO [Vorinostat] (partner 1 µM)
Procedure, shortened: as §1

AZ628 + Linsitinib = compound: CC1=C(C=C(C=C1)NC(=O)C2=CC(=CC=C2)C(C)(C)C#N)NC3=CC4=C(C=C3)N=CN(C4=O)C [AZ628] + C[C@]1(O)C[C@@H](c2nc(-c3ccc4ccc(-c5ccccc5)nc4c3)c3c(N)nccn32)C1 [Linsitinib] (partner 1 µM)
Procedure, shortened: as §1

QS11 + Tozasertib = compound: C1CC2=C(C1)C=C(C=C2)OC3=NC(=C4C(=N3)N(C=N4)CC5=CC=C(C=C5)C6=CC=CC=C6)N[C@@H](CC7=CC=CC=C7)CO [QS11] + Cc1cc(Nc2cc(N3CCN(C)CC3)nc(Sc3ccc(NC(=O)C4CC4)cc3)n2)n[nH]1 [Tozasertib] (partner 0.1 µM)
Procedure, shortened: as §1

| Cell Line | relative viability ([1]; first compound 0.08 µM) | relative viability ([1]; first compound 0.8 µM) | relative viability ([1]; first compound 2.53 µM) | relative viability ([1]; first compound 8 µM) | relative viability (QS11 + Vorinostat; first compound 0.08 µM) | relative viability (QS11 + Vorinostat; first compound 0.253 µM) | relative viability (QS11 + Vorinostat; first compound 0.8 µM) | relative viability (QS11 + Vorinostat; first compound 2.53 µM) | relative viability (QS11 + Vorinostat; first compound 8 µM) | relative viability (AZ628 + Linsitinib; first compound 0.08 µM) | relative viability (AZ628 + Linsitinib; first compound 0.253 µM) | relative viability (AZ628 + Linsitinib; first compound 0.8 µM) | relative viability (AZ628 + Linsitinib; first compound 2.53 µM) | relative viability (AZ628 + Linsitinib; first compound 8 µM) | relative viability (QS11 + Tozasertib; first compound 0.08 µM) | relative viability (QS11 + Tozasertib; first compound 0.253 µM) | relative viability (QS11 + Tozasertib; first compound 0.8 µM) | relative viability (QS11 + Tozasertib; first compound 2.53 µM) | relative viability (QS11 + Tozasertib; first compound 8 µM) |
| --- | --- | --- | --- | --- | --- | --- | --- | --- | --- | --- | --- | --- | --- | --- | --- | --- | --- | --- | --- |
| HCC-44 | 0.312 | 0.197 | 0.223 | 0.169 | 1.14 | 1.05 | 0.557 | 0.98 | 1.01 | 0.701 | 0.646 | 0.672 | 0.678 | 0.666 | 1 | 0.981 | 0.694 | 0.792 | 0.458 |
| Calu-6 |  |  |  |  |  |  |  |  |  | 1.05 | 0.859 | 0.401 | 0.673 | 0.153 |  |  |  |  |  |
| NCI-H1563 | 0.773 | 0.619 | 0.658 | 0.642 |  |  |  |  |  | 1.3 | 1.18 | 1.23 | 1.29 | 1.29 |  |  |  |  |  |
| NCI-H2170 | 0.429 | 0.427 | 0.424 | 0.464 | 0.819 | 0.85 | 0.664 | 0.796 | 1.07 |  |  |  |  |  | 0.803 | 0.662 | 0.671 | 0.742 | 0.721 |
| NCI-H1648 |  |  |  |  | 0.506 | 0.666 | 0.517 | 0.505 | 0.577 |  |  |  |  |  |  | 0.577 |  | 0.396 | 0.642 |
| NCI-H2342 | 0.596 | 0.627 | 0.567 | 0.628 | 0.759 | 0.733 | 0.947 | 0.669 | 0.746 |  |  |  |  |  | 0.479 | 0.46 | 0.62 | 0.474 | 0.436 |
| NCI-H522 | 0.711 | 0.597 | 0.611 | 0.658 | 0.799 | 0.871 | 0.766 | 1 | 0.999 |  |  |  |  |  | 0.494 | 0.616 | 0.47 | 0.627 | 1.58 |
| NCI-H1792 | 0.334 | 0.258 |  | 0.205 |  |  |  |  |  | 0.583 | 0.54 | 0.435 | 0.48 | 0.339 |  |  |  |  |  |
| A549 | 0.121 | 0.114 | 0.192 | 0.163 |  |  |  |  |  | 0.571 | 0.542 | 0.469 | 0.606 | 0.39 |  |  |  |  |  |
| NCI-H1703 |  |  |  |  |  |  |  |  |  | 0.404 | 0.328 | 0.219 | 0.209 | 0.201 |  |  |  |  |  |
| NCI-H1299 |  |  |  |  |  |  |  |  |  | 0.987 | 1.04 | 0.993 | 0.91 | 0.579 |  |  |  |  |  |
| ChaGo-K-1 | 0.494 | 0.535 | 0.515 | 0.575 |  | 0.799 | 0.935 | 0.767 | 0.745 |  |  |  |  |  | 0.232 | 0.256 | 0.238 | 0.216 | 0.23 |
| NCI-H1623 | 0.619 | 0.572 | 0.587 | 0.621 |  |  |  |  |  |  |  |  |  |  | 0.449 | 0.546 | 0.427 | 0.466 | 0.434 |
| NCI-H1650 | 0.472 | 0.416 | 0.494 | 0.395 | 0.463 | 0.446 | 0.51 | 0.476 | 0.389 |  |  |  |  |  | 0.244 | 0.368 | 0.436 | 0.358 | 0.402 |
| EBC-1 |  |  |  |  |  |  |  |  |  | 0.87 | 0.843 | 0.999 | 0.773 | 0.885 |  |  |  |  |  |
| SW 900 | 0.836 | 0.475 | 0.701 | 0.643 | 0.295 | 0.378 | 0.452 | 0.457 | 0.348 |  |  |  |  |  | 0.573 | 0.479 | 0.521 | 0.408 | 0.296 |
